From PMC5863496, “Mesobuthus Venom-Derived Antimicrobial Peptides Possess Intrinsic Multifunctionality and Differential Potential as Drugs” (Frontiers in Microbiology, 2018)
Ends that are not written are not given here.

Tests used:
Type in all cases: cell-based
[1] = test system: fresh erythrocytes from the ICR mice; assay: Hemolytic assay, mouse erythrocytes; settings: mouse blood cells, 30 min, 37°C, A570
Protocol: Hemolytic activity of peptides against fresh erythrocytes from the ICR mice (Mus musculus), the lizards (Eremias multiocellata) or the pigeons (Columba livia domestica) was assayed according to the standard method (Zhu et al., [2012a]). An aliquot of freshly prepared venom was diluted with 0.9% NaCl to a protein concentration of ~5 mg/mL for use. The percentage of hemolysis is determined as (Apep-Ablank)/(Atot-Ablank) × 100, in which “A” represents absorbance measured at 570 nm. Ablank and Aprep were evaluated in the absence or presence of the venom or peptides. 100% hemolysis (Atot) was obtained in the presence of 1% Triton X-100.

[2] = test system: Pseudomonas aeruginosa 11082603; assay: Inhibition-zone assay (CL); settings: PA 11082603, N.A. = no activity at 0.8 nmol peptide each well
In short: (§1)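 Bacteria (~2 × 10^6 cells/ml) were seeded in 0.8% soft-agar medium (LB, Nutrient Broth or GYM) and grown at 30 or 37°C. Three peptide doses were placed in separate 2 mm wells, and inhibition zones were measured after overnight incubation. CL was calculated from the slope and intercept of a d^2 versus log n plot.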

Candida albicans 4259 = assay: Inhibition-zone assay (CL); settings: CA 4259, 28°C, N.A. = no activity at 0.8 nmol peptide each well
Candida albicans SZ56 = assay: Inhibition-zone assay (CL); settings: CA SZ56, 28°C, N.A. = no activity at 0.8 nmol peptide each well
[3] = test system: Geotrichum candidum CCTCC AY 93038; assay: Inhibition-zone assay (CL); settings: GC CCTCC AY 93038, 28°C, N.A. = no activity at 0.8 nmol peptide each well
[4] = test system: Staphylococcus aureus J706; assay: Inhibition-zone assay (CL); settings: SA J706, N.A. = no activity at 0.8 nmol peptide each well
In short: as §1

[5] = test system: Pseudomonas aeruginosa 11092304; assay: Inhibition-zone assay (CL); settings: PA 11092304, N.A. = no activity at 0.8 nmol peptide each well
In short: as §1

Escherichia coli D. J45b = assay: Inhibition-zone assay (CL); settings: EC D. J45b, N.A. = no activity at 0.8 nmol peptide each well
In short: as §1

[6] = test system: Bacillus cereus CGMCC 1.1846; assay: Inhibition-zone assay (CL); settings: BC CGMCC 1.1846, N.A. = no activity at 0.8 nmol peptide each well
In short: as §1

[7] = test system: Saccharomyces cerevisiae CCTCC AY 92003; assay: Inhibition-zone assay (CL); settings: SC CCTCC AY 92003, 28°C, N.A. = no activity at 0.8 nmol peptide each well
[8] = test system: Streptomyces griseus NBRC 13350; assay: Inhibition-zone assay (CL); settings: SG NBRC 13350, N.A. = no activity at 0.8 nmol peptide each well
In short: as §1

Candida albicans JX1017 = assay: Inhibition-zone assay (CL); settings: CA JX1017, 28°C, N.A. = no activity at 0.8 nmol peptide each well
Escherichia coli TOP10 = assay: Inhibition-zone assay (CL); settings: EC TOP10, N.A. = no activity at 0.8 nmol peptide each well
In short: as §1

Candida albicans 4247 = assay: Inhibition-zone assay (CL); settings: CA 4247, 28°C, N.A. = no activity at 0.8 nmol peptide each well
[9] = test system: Streptomyces scabiei CGMCC 4.1765; assay: Inhibition-zone assay (CL); settings: SSCA CGMCC 4.1765, N.A. = no activity at 0.8 nmol peptide each well
In short: as §1

[10] = test system: Pseudomonas aeruginosa QT1; assay: Inhibition-zone assay (CL); settings: PA QT1, N.A. = no activity at 0.8 nmol peptide each well
In short: as §1

[11] = test system: Staphylococcus aureus J708; assay: Inhibition-zone assay (CL); settings: SA J708, N.A. = no activity at 0.8 nmol peptide each well
In short: as §1

Candida albicans JX1009 = assay: Inhibition-zone assay (CL); settings: CA JX1009, 28°C, N.A. = no activity at 0.8 nmol peptide each well
[12] = test system: Alcaligenes faecalis CGMCC 1.1837; assay: Inhibition-zone assay (CL); settings: AF CGMCC 1.1837, N.A. = no activity at 0.8 nmol peptide each well
In short: as §1

[13] = test system: Pseudomonas aeruginosa 14; assay: Inhibition-zone assay (CL); settings: PA 14, N.A. = no activity at 0.8 nmol peptide each well
In short: as §1

[14] = test system: Pseudomonas aeruginosa O1; assay: Inhibition-zone assay (CL); settings: PA O1, N.A. = no activity at 0.8 nmol peptide each well
In short: as §1

[15] = peptide 3.125 μM, mean ± S.D., triplicate

Row | Compound | hemolysis [1, 15] | Lethal concentration (CL) [2] | Lethal concentration (CL) (Candida albicans 4259) | Lethal concentration (CL) (Candida albicans SZ56) | Lethal concentration (CL) [3] | Lethal concentration (CL) [4] | Lethal concentration (CL) [5] | Lethal concentration (CL) (Escherichia coli D. J45b) | Lethal concentration (CL) [6] | Lethal concentration (CL) [7] | Lethal concentration (CL) [8] | Lethal concentration (CL) (Candida albicans JX1017) | Lethal concentration (CL) (Escherichia coli TOP10) | Lethal concentration (CL) (Candida albicans 4247) | Lethal concentration (CL) [9] | Lethal concentration (CL) [10] | Lethal concentration (CL) [11] | Lethal concentration (CL) (Candida albicans JX1009) | Lethal concentration (CL) [12] | Lethal concentration (CL) [13] | further results
1 | FLFSLIPSAISGLISAFKGRRKRDLN-NH2 [MarMEL] | 66 ± 1.2% | 8.41 µM | 5.17 µM | 8.49 µM | 6.34 µM | 8.41 µM | 24.95 µM | 6.24 µM | 6.69 µM | 7.72 µM | 5.19 µM | 4.07 µM | 4.10 µM | 7.04 µM | 1.56 µM | 14.29 µM | 4.69 µM | 6.49 µM |  |  | hemolysis ([1]; peptide 6.25 μM): ~100%
2 | FLFSLIPSAISGLINAFK-NH2 [MeuFSPL-2] |  |  | 12.61 µM | 14.80 µM | 24.94 µM | 7.04 µM |  |  | 19.57 µM | 11.62 µM |  | 11.10 µM | 11.58 µM | 7.02 µM | 7.75 µM |  | 6.21 µM | 11.58 µM |  |  | 
3 | FFGHLFKLATKIIPSLFQRKKE [MUC-22] |  | 6.10 µM |  |  |  |  | 10.02 µM | 7.49 µM |  |  |  |  |  |  |  | 6.10 µM |  |  | 11.65 µM | 4.06 µM | Lethal concentration (CL) [14]: 3.79 µM
4 | CC[C@H](C)[C@H](NC(=O)CN)C(=O)NCC(=O)N[C@@H](C)C(=O)N[C@H](C(=O)N[C@@H](CC(C)C)C(=O)N[C@@H](CCCCN)C(=O)N[C@H](C(=O)N[C@@H](CC(C)C)C(=O)N[C@H](C(=O)N[C@H](C(=O)NCC(=O)N[C@@H](CC(C)C)C(=O)N1CCC[C@H]1C(=O)N[C@@H](C)C(=O)N[C@@H](CC(C)C)C(=O)N[C@H](C(=O)N[C@@H](CO)C(=O)N[C@@H](Cc1c[nH]c2ccccc12)C(=O)N[C@H](C(=O)N[C@@H](CCCCN)C(=O)N[C@@H](CCCNC(=N)N)C(=O)N[C@@H](CCCCN)C(=O)N[C@@H](CCCNC(=N)N)C(=O)N[C@@H](CCC(N)=O)C(=O)N[C@@H](CCC(N)=O)C(N)=O)[C@@H](C)CC)[C@@H](C)CC)[C@@H](C)O)[C@@H](C)O)C(C)C)C(C)C [Melittin, reference compound] | complete hemolysis |  |  |  |  | 16.41 µM |  | 24.54 µM | 24.74 µM |  | 28.79 µM |  | 13.80 µM |  | 15.93 µM |  | 7.80 µM |  |  |  | 
5 | FFGHLFKLATKIIPSLFQ [MUC-18, reference compound] |  |  |  |  |  | 4.86 µM | 31.40 µM | 22.72 µM |  |  | 31.40 µM |  |  |  | 4.45 µM | 18.49 µM | 6.86 µM |  | 18.64 µM | 31.40 µM | Lethal concentration (CL) [14]: 41.58 µM
6 | FLFSLIPSAISGLISAFK-NH2 [MeuFSPL-1] | 61 ± 2.5% |  | 14.80 µM | 21.82 µM | 17.70 µM | 10.92 µM |  |  | 15.33 µM | 25.00 µM | 6.81 µM | 11.72 µM | 9.94 µM | 15.28 µM | 1.77 µM |  | 10.92 µM | 15.55 µM |  |  | hemolysis ([1]; peptide 6.25 μM): ~100%
7 | FFGHLFKLATKIIPSFFRRKNQ [MAC-22] |  | 14.35 µM |  |  |  |  | 24.82 µM | 6.78 µM |  |  |  |  |  |  |  | 10.98 µM |  |  | 11.13 µM | 6.78 µM | Lethal concentration (CL) [14]: 12.03 µM
